Experimental data published in ChEMBL document CHEMBL3507680, “University of Dundee, Gates Library screen for HepG2 cell viability”.

Experiment: Human HepG2 cell viability assay in 384 well format
Format: toxicity, cell-based
Set-up: dose 125 nL, time 70.5 hour; cytotoxicity at 70.5 h: concentration not given beside the values
Conditions: HepG2 cells, read-out: Inhibition
`CCn1ccnc1CN1CCN(C(C)C(=O)NC2CCCC2)CC1` (stereo not given) gave a cytotoxicity at 70.5 h of -4.1%. `CN(C(=O)NCc1ccsc1)C1CCN(c2ccccc2)C1=O` (stereo not given) gave a cytotoxicity at 70.5 h of 0.0689%. With `CCc1nnc(NC(=O)Cc2c(C)nc(C)[nH]c2=O)s1` the cytotoxicity at 70.5 h was 13.4%. In the case of `Cc1nc(C)c(CC(=O)Nc2nnc(C3CC3)s2)c(=O)[nH]1`, the cytotoxicity at 70.5 h is reported as -7.66%. With `Cc1occc1C(=O)NCc1cccnc1N(C)C` the cytotoxicity at 70.5 h was -14.4%. In the case of `COc1ncccc1CNC(=O)c1c(C)oc(C)c1C`, the cytotoxicity at 70.5 h is reported as -8.16%. `Cc1noc(C)c1C(=O)NCc1cccnc1N(C)C` gave a cytotoxicity at 70.5 h of -9.96%. In the case of `CC(C)(C)NC(=O)CCOc1cccc(F)c1`, the cytotoxicity at 70.5 h is reported as -5.57%. With `Cc1nc(C)c(CC(=O)Nc2nnc(C(C)C)s2)c(=O)[nH]1` the cytotoxicity at 70.5 h was -5.16%. With `CCn1cc(CN2CCCN(C(=O)c3ccco3)CC2)cn1` the cytotoxicity at 70.5 h was -6.43%. Work on `Cc1ccoc1C(=O)N1CCCN(Cc2cnn(C)c2)CC1` yielded a cytotoxicity at 70.5 h of -17.4%. Molecule `COc1cc2ccccc2cc1C(=O)N1CCCC(c2nncn2C)C1` (stereo not given) has a cytotoxicity at 70.5 h of -11.4%. `CCc1nc(CN2CCCC(NCc3nc(C)c(C)o3)C2)no1` (stereo not given) showed a cytotoxicity at 70.5 h of -10.5%. `CCOc1ncccc1C(=O)N1CCCC(c2nncn2C)C1` (stereo not given) gave a cytotoxicity at 70.5 h of -3.42%. `Cc1nn(C)c(C)c1C1CCCN1C(=O)c1ccnc(N(C)C)c1` (stereo not given) gave a cytotoxicity at 70.5 h of -14.3%. In the case of `COc1c(C2CCCN2C(=O)c2cnccn2)c(C)nn1C` (stereo not given), the cytotoxicity at 70.5 h is reported as 20.2%. `CCc1nnc(CNC2CCCN(Cc3noc(C4CC4)n3)C2)o1` (stereo not given) gave a cytotoxicity at 70.5 h of -9.18%. `Cc1nc(CN(C)C2CCN(Cc3ccc4c(c3)CCC4)C2)no1` (stereo not given) gave a cytotoxicity at 70.5 h of -9.34%. `Cn1cnnc1C1CCCN(C(=O)COc2ccccc2Cl)C1` (stereo not given) showed a cytotoxicity at 70.5 h of -6.87%. With `Cn1cnnc1C1CCCN(C(=O)c2cc(Cl)cc(Cl)c2)C1` (stereo not given) the cytotoxicity at 70.5 h was -8.15%. `CN(C)c1cc(CNC(=O)c2n[nH]c(=O)c3ccccc23)ccn1` showed a cytotoxicity at 70.5 h of 12.8%. With `Cn1cnnc1C1CCCN(C(=O)c2cc3ccccc3[nH]2)C1` (stereo not given) the cytotoxicity at 70.5 h was -11.2%. With `Cc1nn(C)c(N2CCOCC2)c1CNCc1ccc(N(C)C)nc1` the cytotoxicity at 70.5 h was 15.7%. With `Cc1nn(C)c(N2CCOCC2)c1CNCc1ccnn1C` the cytotoxicity at 70.5 h was -9.28%. In the case of `COc1ncccc1CNCc1c(C)nn(C)c1N1CCOCC1`, the cytotoxicity at 70.5 h is reported as -12.3%. Work on `CN(C)c1cc(CNC(=O)c2cc(Cl)ccn2)ccn1` yielded a cytotoxicity at 70.5 h of -11.8%. Work on `CCn1cc(CN2CCCN(C(=O)c3ccoc3C)CC2)cn1` yielded a cytotoxicity at 70.5 h of -7.59%. Molecule `CCn1cc(CN2CCCN(C(=O)c3c(C)oc(C)c3C)CC2)cn1` has a cytotoxicity at 70.5 h of -12.8%. With `CNc1cc2c(nn1)CCN(C(=O)c1cc(C)no1)C2` the cytotoxicity at 70.5 h was -7.41%. `CNc1cc2c(nn1)CCN(C(=O)c1ccc3c(c1)CCC3)C2` gave a cytotoxicity at 70.5 h of -4.27%. `COc1c(C2CCCN2C(=O)c2ccc(C#N)cc2)c(C)nn1C` (stereo not given) gave a cytotoxicity at 70.5 h of -9.49%. With `O=C(CCc1nccs1)N1CCN(c2nccs2)CC1` the cytotoxicity at 70.5 h was -7.6%. `CCC1CN(CC(=O)Nc2cc(C)nn2C)CCO1` (stereo not given) gave a cytotoxicity at 70.5 h of -5.03%. `Cn1cnnc1C1CCN(C(=O)Cc2ccc3c(c2)OCCO3)CC1` showed a cytotoxicity at 70.5 h of -2.32%. Molecule `Cc1cnn(CC2CCCN2C(=O)c2cccc3c2OCO3)c1` (stereo not given) has a cytotoxicity at 70.5 h of -5.23%. For `Cc1cccc2c1CCN(c1cc(N3CCCC3CO)ncn1)C2` (stereo not given), the cytotoxicity at 70.5 h was -10.5%. For `CC(NC(=O)NCCOc1ccc(Cl)cc1)c1nncn1C` (stereo not given), the cytotoxicity at 70.5 h was -12.4%. With `COc1ccc(CC(=O)N2CCCC(c3nncn3C)C2)cc1` (stereo not given) the cytotoxicity at 70.5 h was -2.88%. Work on `COc1ccc(C(=O)N(C)Cc2ncc(C)c(OC)c2C)c(OC)c1` yielded a cytotoxicity at 70.5 h of -4.31%. In the case of `COCCOc1ccccc1C(=O)N(C)Cc1ncc(C)c(OC)c1C`, the cytotoxicity at 70.5 h is reported as -5.65%. `Cc1cc(C)c(C)c(OCCCNC(=O)NC(C)c2nncn2C)c1` (stereo not given) gave a cytotoxicity at 70.5 h of 14.5%. `Fc1cccc(CN2CCN(Cc3cscn3)CC2)c1` gave a cytotoxicity at 70.5 h of -4.73%. In the case of `COc1cccc(C(=O)N(C)Cc2ncc(C)c(OC)c2C)c1OC`, the cytotoxicity at 70.5 h is reported as -0.629%. For `COCc1ccccc1C(=O)N(C)Cc1ncc(C)c(OC)c1C`, the cytotoxicity at 70.5 h was 19.4%. `NC(=O)C1CCCN1c1cc(N2CCc3ccccc3C2)ncn1` (stereo not given) gave a cytotoxicity at 70.5 h of -5.82%. Molecule `c1cnnc(N2CCCC(NCc3ccc(-n4cncn4)cc3)C2)c1` (stereo not given) has a cytotoxicity at 70.5 h of -3.17%. `Cc1noc2ncc(C(=O)N3CCCC(n4ccnc4C)C3)cc12` (stereo not given) showed a cytotoxicity at 70.5 h of -7.39%. In the case of `O=C(c1ccccc1OCC1CC1)N1CCCC1Cn1cccn1` (stereo not given), the cytotoxicity at 70.5 h is reported as 17.7%. With `O=C1COc2c(cccc2C(=O)N2CCCC2Cn2cccn2)N1` (stereo not given) the cytotoxicity at 70.5 h was -8.08%. `CN1CCN(c2cc(N3CCCC3CO)ncn2)Cc2ccccc21` (stereo not given) gave a cytotoxicity at 70.5 h of 17.8%. With `COc1ccc2c(c1)CN(c1cc(N3CCCC3CO)ncn1)CC2` (stereo not given) the cytotoxicity at 70.5 h was -7.51%. With `CC(C)c1n[nH]c(C2CN(Cc3nnc(C4CC4)n3C)CCO2)n1` (stereo not given) the cytotoxicity at 70.5 h was -7.72%. Molecule `Cc1nc(CN2CCCC(N(C)Cc3nnc(C4CC4)o3)C2)no1` (stereo not given) has a cytotoxicity at 70.5 h of 13.8%. For `CC(C)c1nnc2n1CCN(C(=O)c1cccc(OCC(N)=O)c1)C2`, the cytotoxicity at 70.5 h was -2.06%. `CC(C)c1nc(CN2CCCC2CN2CCCC2)cs1` (stereo not given) gave a cytotoxicity at 70.5 h of -7.95%. Work on `CCN1CCN(Cc2csc(C(C)C)n2)CC1` yielded a cytotoxicity at 70.5 h of -8.86%. `Cc1nc(C)n(CC2CCCCN2Cc2cscn2)n1` (stereo not given) gave a cytotoxicity at 70.5 h of -5.99%. With `Cc1nc(C)n(CC2CCCN2Cc2ccccn2)n1` (stereo not given) the cytotoxicity at 70.5 h was -6.2%. Molecule `CCC(O)CN1CCN(C(=O)Cc2nc(-c3ccco3)oc2C)CC1` (stereo not given) has a cytotoxicity at 70.5 h of -2.09%. Molecule `Cc1nc(C)n(CC2CCCN2Cc2cnc(C)s2)n1` (stereo not given) has a cytotoxicity at 70.5 h of -8.97%. In the case of `Cc1nc(CN2CCCC2Cn2cncn2)nc2ccccc12` (stereo not given), the cytotoxicity at 70.5 h is reported as -12.1%. Work on `CC(C)c1nc(CN2CCOCC2)cs1` yielded a cytotoxicity at 70.5 h of 7.98%. In the case of `CN(Cc1ccccc1)C(=O)CS(=O)(=O)Cc1ccc(Cl)c(Cl)c1`, the cytotoxicity at 70.5 h is reported as -4.65%. In the case of `CCOc1ccc(CC(CNC(=O)c2sccc2C)C(N)=O)cc1` (stereo not given), the cytotoxicity at 70.5 h is reported as -1.61%. `CCOc1ccc(CC(CNC(=O)c2ccc(C)o2)C(N)=O)cc1` (stereo not given) gave a cytotoxicity at 70.5 h of -10.7%. `O=C(c1ccc2[nH]nnc2c1)N1CCCC(n2cccn2)C1` (stereo not given) showed a cytotoxicity at 70.5 h of -5.26%. In the case of `Cc1nnc2n1CCN(CC(=O)Nc1cc(C(C)C)no1)C2`, the cytotoxicity at 70.5 h is reported as -8.51%. In the case of `COc1ccccc1CC1CCCN(CCC(N)=O)C1` (stereo not given), the cytotoxicity at 70.5 h is reported as 5.7%. With `CCc1nnc2n1CCN(CCC(=O)Nc1cc(C)on1)C2` the cytotoxicity at 70.5 h was -5.92%. `CC(C)c1nccn1C1CCCN(C(=O)c2ccsc2)C1` (stereo not given) gave a cytotoxicity at 70.5 h of -2.65%. In the case of `Cc1nc(CN2CCOC(CN(C)c3cccnn3)C2)cs1` (stereo not given), the cytotoxicity at 70.5 h is reported as -12.9%. With `CCn1cnnc1C1CCN(C(=O)COCCc2ccccc2)CC1` the cytotoxicity at 70.5 h was -3.71%. In the case of `Cc1ccc(-c2nc(CN3CCn4c(nnc4C4CC4)C3)cs2)o1`, the cytotoxicity at 70.5 h is reported as 14.8%. Work on `Cc1cc(C(=O)NCCn2nc3ccccn3c2=O)[nH]n1` yielded a cytotoxicity at 70.5 h of -13.9%. Molecule `CC1CN(CC(=O)NC2CCCC2)CCN1c1ccc2nncn2n1` (stereo not given) has a cytotoxicity at 70.5 h of -20.8%. `CCc1nc(CN2CCCN(C(=O)COCC3CC3)CC2)cs1` showed a cytotoxicity at 70.5 h of -12.1%. Molecule `O=C(O)c1csc(S(=O)(=O)Nc2cccc(OC(F)F)c2)c1` has a cytotoxicity at 70.5 h of -12.7%. In the case of `c1cc(-c2nc(CN3CCn4c(nnc4C4CC4)C3)cs2)cs1`, the cytotoxicity at 70.5 h is reported as -25.2%. `CC(C)(C)c1cn2nc(N3CCC[C@@H]3CO)sc2n1` gave a cytotoxicity at 70.5 h of -17.4%. Molecule `CCc1nc(CN2CCN(C(=O)Cc3c(C)noc3C)CC2)cs1` has a cytotoxicity at 70.5 h of -10.4%. For `CC(c1nc(C2CC2)no1)N1CCN(Cc2cccc(C#N)c2)CC1` (stereo not given), the cytotoxicity at 70.5 h was -2.01%. In the case of `c1cnn(CCNCc2csc(-c3ccsc3)n2)c1`, the cytotoxicity at 70.5 h is reported as 10.6%. Molecule `Cc1cc(NC(=O)C(C)N2CCCN(c3nccs3)CC2)on1` (stereo not given) has a cytotoxicity at 70.5 h of -15.9%. With `Cc1nn(C)c(N(C)C)c1CNCCOc1ccc2c(c1)OCO2` the cytotoxicity at 70.5 h was -4.86%. Work on `Cc1ccsc1CNC1CCCc2c1cnn2C` (stereo not given) yielded a cytotoxicity at 70.5 h of -2.66%.
